Measurements: patent US7473690B2, “Tetralin and indane derivatives and uses thereof” (Roche Palo Alto LLC, priority 2004, dated 2009)

Tests used:
[1] = target: T1, recombinant human 5-HT6 receptor (Homo sapiens, UniProt P50406); assay: Radioligand binding, [3H]LSD competition, 5-HT6; settings: [3H]LSD displacement, membranes of HEK293 cells, pH 7.4, 37° C.; read-out: pKi for 5-HT6 (converted)
T1 construct: expressed in transfected cells; membranes)
Method: (§1) The binding activity of compounds of this invention in vitro was determined as follows. Duplicate determinations of 5-HT6 ligand affinity were made by competing for binding of [^3H]LSD in cell membranes derived from HEK293 cells stably expressing recombinant human 5-HT6 receptor. Duplicate determinations of 5-HT2A ligand affinity were made by competing for binding of [^3H]Ketanserin (3-(2-(4-(4-fluorobenzoyl)piperidinol)ethyl)-2,4(1H,3H)-quinazolinedione) in cell membranes derived from CHO-K1 cells stably expressing recombinant human 5-HT2A receptor. Membranes were prepared from HEK 293 cell lines by the method described by Monsma et al., Molecular Pharmacology, Vol. 43 pp. 320-327 (1993), and from CHO-K1 cell lines as described by Bonhaus et al., Br J Pharmacol. Jun; 115 (4):622-8 (1995).
(§2) For estimation of affinity at the 5-HT6 receptor, all determinations were made in assay buffer containing 50 mM Tris-HCl, 10 mM MgSO4, 0.5 mM EDTA, 1 mM ascorbic acid, pH 7.4 at 37° C., in a 250 microliter reaction volume. […]
(§3) Assay tubes containing [^3H] […] LSD or [^3H]Ketanserin were determined as radioactive counts per minute using Packard TopCount.
(§4) Displacement of [^3H]LSD or [^3H]Ketanserin from the binding sites was quantified by fitting concentration-binding data to a 4-parameter logistic equation: […]

[2] = target: T2, recombinant human 5-HT2A receptor (Homo sapiens, UniProt P28223); assay: Radioligand binding, [3H]Ketanserin competition, 5-HT2A; settings: [3H]Ketanserin displacement, membranes of CHO-K1 cells, pH 7.4, 32° C.; read-out: pKi for 5-HT2A (converted)
T2 construct: expressed in transfected cells; membranes)
Method: as §1, §2, §3, §4

T1 sequence (P50406 whole entry): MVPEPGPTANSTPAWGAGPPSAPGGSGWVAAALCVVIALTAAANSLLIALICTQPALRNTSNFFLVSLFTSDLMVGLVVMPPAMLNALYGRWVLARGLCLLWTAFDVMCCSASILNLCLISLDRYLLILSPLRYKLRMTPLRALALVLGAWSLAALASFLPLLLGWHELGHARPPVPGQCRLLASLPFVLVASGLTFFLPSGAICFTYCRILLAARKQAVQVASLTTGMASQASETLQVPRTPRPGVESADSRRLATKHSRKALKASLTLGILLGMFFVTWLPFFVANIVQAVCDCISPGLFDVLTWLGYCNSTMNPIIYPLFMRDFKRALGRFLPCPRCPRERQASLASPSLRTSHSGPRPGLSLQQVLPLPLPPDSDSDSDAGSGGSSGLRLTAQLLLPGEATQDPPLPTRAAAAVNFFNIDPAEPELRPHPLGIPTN
T2 sequence (P28223 whole entry): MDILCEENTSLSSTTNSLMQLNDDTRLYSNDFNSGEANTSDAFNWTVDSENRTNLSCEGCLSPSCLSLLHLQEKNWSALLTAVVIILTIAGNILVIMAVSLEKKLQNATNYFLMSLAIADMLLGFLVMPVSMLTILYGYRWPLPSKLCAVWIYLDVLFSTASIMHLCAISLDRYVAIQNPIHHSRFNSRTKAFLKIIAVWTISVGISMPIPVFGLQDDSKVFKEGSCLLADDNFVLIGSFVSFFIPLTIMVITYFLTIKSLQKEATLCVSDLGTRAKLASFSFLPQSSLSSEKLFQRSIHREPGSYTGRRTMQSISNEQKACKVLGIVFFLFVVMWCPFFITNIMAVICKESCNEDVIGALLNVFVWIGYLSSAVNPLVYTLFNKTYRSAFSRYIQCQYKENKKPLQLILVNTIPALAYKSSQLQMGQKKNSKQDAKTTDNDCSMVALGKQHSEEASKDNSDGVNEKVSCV

Work on CN1CCN(C2CCCc3cc(S(=O)(=O)c4ccccc4)ccc32)CC1 (centres unmarked) [Compound 11, 1-(6-Benzenesulfonyl-1,2,3,4-tetrahydro-naphthalen-1-yl)-4-methyl-piperazine] yielded a Ki [1] of about 0.302 nM and a Ki [2] of about 17.4 nM.
